Assay results from ChEMBL document CHEMBL1134083, “Discovery of a nuclease-resistant, non-natural dinucleotide that inhibits HIV-1 integrase” (Bioorg Med Chem Lett, 2001).

Columns and labels:
[1] = molecular target: T1, Human immunodeficiency virus type 1 integrase (Human immunodeficiency virus 1, UniProt Q7ZJM1); test: Inhibitory concentration required against recombinant wild type HIV integrase by reproducible assay (Strand transfer)
[2] = molecular target: T1, Human immunodeficiency virus type 1 integrase; test: Inhibitory concentration required against recombinant wild type HIV integrase by reproducible assay (3' processing)

T1 sequence (Q7ZJM1 whole entry): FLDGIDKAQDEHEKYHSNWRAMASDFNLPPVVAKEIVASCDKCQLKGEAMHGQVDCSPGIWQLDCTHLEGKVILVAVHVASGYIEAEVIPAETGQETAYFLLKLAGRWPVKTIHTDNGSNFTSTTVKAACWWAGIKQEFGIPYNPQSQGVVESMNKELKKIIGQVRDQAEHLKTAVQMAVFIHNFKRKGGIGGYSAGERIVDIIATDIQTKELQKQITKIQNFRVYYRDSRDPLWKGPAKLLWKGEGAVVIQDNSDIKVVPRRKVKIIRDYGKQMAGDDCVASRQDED

For Nc1ccn([C@H]2C[C@H](OP(=O)(O)OC[C@H]3OC[C@@H](n4ccc(=O)[nH]c4=O)[C@@H]3O)[C@@H](COP(=O)(O)O)O2)c(=O)n1, the IC50 [1] was 5.9 µM and the IC50 [2] was 7.5 µM.
